Data: US10729132B2, “Xylophage control using antimethanogenic reagents” (Environmental Intellectual Property, Inc, priority 2015, dated 2020)

Legend:
[1] = test system: F420-dependent NADP oxidoreductase enzyme from M. smithii; conditions: compared to the natural ligand F420; cited from earlier work
Archaea = assay: Laboratory Study 5: methane concentration in control and test samples with AMRs
Procedure: Use of diallyl sulfide, which may be considered a synthetic garlic oil (GOS), was evaluated for its ability to control Archaea compared to the effects of other potential AMRs such as natural/pressed Garlic Oil (GO) and dehydrated Garlic Powder (GP). Control samples with and without contaminants were captured along with test samples that included contaminants and different concentrations (250 ppm and 500 ppm) of different AMRs (GO, GOS and GP). The concentration of methane in each of the samples was measured at 0, 9, 16 and 23 days.

| Compound | affinity for the model protein [1] | length and magnitude of antimethanogenic responses (Archaea; 500 ppm lasting longer than 250 ppm) | control response in terms of methane production (Archaea; after 23 days incubation, 250 ppm and 500 ppm) |
| --- | --- | --- | --- |
| CC[C@H](C)C(=O)O[C@H]1C[C@@H](C)C=C2C=C[C@H](C)[C@H](CC[C@@H]3C[C@@H](O)CC(=O)O3)[C@H]21 [lovastatin] | more affinity |  |  |
| CC[C@H](C)C(=O)O[C@H]1CCC=C2C=C[C@H](C)[C@H](CC[C@@H]3C[C@@H](O)CC(=O)O3)[C@H]21 [compactin] | more affinity |  |  |
| C=CCSCC=C [GOS, diallyl sulfide] |  | concentration dependent | best control response |
